Laboratory results published in PubChem BioAssay (NCI).
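96-well plates; 48 h exposure; 5 concentrations. Endpoints by linear interpolation between flanking doses. Not reached: highest tested concentration assigned. TGI denotes the concentration required for complete inhibition of growth.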

How the values were obtained:
Test in all cases: NCI-60 cell line screen, 48 h
MDA-N = test system: MDA-N
HOP-92 NSCLC = test system: HOP-92 NSCLC
HCT-15 colon = test system: HCT-15 colon
HL-60(TB) leukemia = test system: HL-60(TB) leukemia
UACC-62 melanoma = test system: UACC-62 melanoma
MDA-MB-231 breast = test system: MDA-MB-231 breast
SF-295 CNS = test system: SF-295 CNS
PC-3 prostate = test system: PC-3 prostate
HCC-2998 colon = test system: HCC-2998 colon
MCF7 breast = test system: MCF7 breast
SN12C renal = test system: SN12C renal
DU-145 prostate = test system: DU-145 prostate
COLO 205 colon = test system: COLO 205 colon

| Structure (SMILES) | TGI (MDA-N) [µM] | TGI (HOP-92 NSCLC) [µM] | TGI (HCT-15 colon) [µM] | TGI (HL-60(TB) leukemia) [µM] | TGI (UACC-62 melanoma) [µM] | TGI (MDA-MB-231 breast) [µM] | TGI (SF-295 CNS) [µM] | TGI (PC-3 prostate) [µM] | TGI (HCC-2998 colon) [µM] | TGI (MCF7 breast) [µM] | TGI (SN12C renal) [µM] | TGI (DU-145 prostate) [µM] | TGI (COLO 205 colon) [µM] |
| --- | --- | --- | --- | --- | --- | --- | --- | --- | --- | --- | --- | --- | --- |
| CCOC(=O)/C=C(\C(=O)OCC)n1cc(C)c(=O)n(Cc2cnnn2COCCOC(C)=O)c1=O | 44 | 4.27 | 12 | 12.7 | 31.1 | 42.7 | 69.3 | > 59.2 | 30.7 | 24.5 | 36.2 | 48 | 4.33 |
| CCCCOC(=O)C1CC[C@H]2[C@@H]3CCc4cc(OC(=O)c5cccc6c(=O)c7ccccc7[nH]c56)ccc4[C@H]3CC[C@]12C (stereo partly drawn) | 14.5 | 16.5 | 13.5 | 13.6 | 13.3 | 14.5 | 16.1 | 15.6 | 15.8 | 25.8 | 15.3 | 14.9 | 13.8 |
| C=C(Cl)C(Cl)(CCl)CCC(Br)C(C)(C)Br (stereo not drawn) | > 10 | > 10 | > 10 | > 10 | > 10 | > 10 | > 10 | > 10 | > 10 | > 10 | > 10 | > 10 | > 10 |
| COc1nc2ccc(COc3ccc(C(=O)O)cc3)cc2nc1OC | > 100 | > 100 | > 100 | > 100 | > 100 | > 100 | > 100 | > 100 | > 100 | > 100 | > 100 | > 100 | > 100 |
| O=C1CSC(c2cccc(Cl)c2)N1c1ccc(-c2ccc(-n3c(-c4ccccc4)nc4ccccc4c3=O)cc2)cc1 (stereo not drawn) | > 100 | 56.5 | > 100 | > 100 | > 100 | > 100 | > 100 | > 100 | > 100 | > 100 | > 100 | > 100 | > 100 |
| CC(C)(C)N/N=C(\C(=O)NC1=C(Cl)C(=O)c2ccccc2C1=O)C1C=CCS1(=O)=O (stereo not drawn) | 6.33 | 33 | 22.9 | > 100 | 9.17 | 32.4 | 25.1 | 62.2 | 57.3 | 29 | 31.6 | 23.2 | 30.2 |
| CC1OC2OC3C(OCC(O)C3O)OC(=O)[C@]34CCC(C)(C)CC3C3=CCC5[C@@]6(C)C[C@H](O)[C@H](OC7OC(CO)C(O)C(O)C7OC7OCC(OC(=O)CC(C)(O)CC(=O)OC1C(O)C2O)C(O)C7O)[C@@](C)(CO)C6CC[C@@]5(C)[C@]3(C)CC4 (stereo partly drawn) | 13.8 | 6.03 | 19.2 | 4.11 | 14.4 | 20.6 | 12.4 | 6.72 | 5.12 | 26.4 | 21.1 | 14.7 | 4.39 |
| Cn1c(=O)c2c(nc3sc4ccccc4c(=O)n32)n(C)c1=O | > 100 | > 100 | > 100 | > 100 | > 100 | > 100 | > 100 | > 100 | > 100 | > 100 | > 100 | > 100 | > 100 |
| COc1ccccc1C1(c2c(OC)c(=O)c2=O)SCCCS1 | > 100 | > 100 | > 100 | > 100 | > 100 | > 100 | > 100 | > 100 | > 100 | > 100 | > 100 | > 100 | > 100 |
| Br[C@@H]1[C@H]2c3nc4ccccc4nc3[C@@H]1C[C@H]2Br | > 100 | > 100 | > 100 | > 100 | > 100 | > 100 | > 100 | > 100 | > 100 | > 100 | > 100 | > 100 | > 100 |
| CCN1CCC(CNC(=O)c2ccc(N)cc2)N1CC (stereo not drawn) | > 100 | > 100 | > 100 | > 100 | > 100 | > 100 | > 100 | > 100 | > 100 | > 100 | > 100 | > 100 | > 100 |
| [N-]=[N+]=CC(=O)OCCCCl | > 100 | > 100 | > 100 | > 100 | > 100 | > 100 | > 100 | > 100 | > 100 | > 100 | > 100 | > 100 | > 100 |
| CC1(C)OC2OC(C(COS(=O)(=O)C(F)(F)F)N=[N+]=[N-])C(OC(=O)c3ccccc3)C2O1 (stereo not drawn) | > 100 | > 100 | > 100 | > 100 | > 100 | > 100 | > 100 | > 100 | > 100 | > 100 | > 100 | > 100 | > 100 |
| Cc1ccc2nc(-c3ccc(C(C)(C)C)cc3)oc(=O)c2c1 | 67.5 | 63.2 | 54 | 40 | 49.3 | 54.2 | 49 | 69.6 | 27.8 | 63.1 | > 100 | 68.4 | 35.5 |
| O=C1CSC(c2ccc(Cl)cc2Cl)N1c1ccc(Oc2ccc(Cl)cc2)c(Cl)c1 (stereo not drawn) | 98 | 49.4 | 66.4 | 48.3 | 53.5 | 45.2 | 50.9 | > 100 | > 100 | > 100 | > 100 | > 100 | 61 |
| CC(=O)OCC1OC(n2c(Br)nc3c2c(=O)n(C)c(=O)n3C)C(OC(C)=O)C1OC(C)=O (stereo not drawn) | > 100 | > 100 | > 100 | 57.9 | > 100 | > 100 | > 100 | > 100 | > 100 | > 100 | > 100 | > 100 | > 100 |
| CCCCCCCCCCCCCCCCNc1ccn(C2CC(O)C(COC(c3ccccc3)(c3ccccc3)c3ccc(OC)cc3)O2)c(=O)n1 (stereo not drawn) | > 100 | > 100 | > 100 | > 100 | > 100 | > 100 | > 100 | > 100 | > 100 | > 100 | > 100 | > 100 | > 100 |
| C/C(=N\O)c1cccc[n+]1Cc1ccccc1 | > 100 | > 100 | > 100 | > 100 | > 100 | > 100 | > 100 | > 100 | > 100 | > 100 | > 100 | > 100 | > 100 |
| Cc1cccc(CC(Cc2ccc(C)cc2C(=O)O)C(=O)O)c1 (stereo not drawn) | > 100 | > 100 | > 100 | > 100 | 96.5 | > 100 | > 100 | > 100 | > 100 | > 100 | > 100 | > 100 | > 100 |
| O=C1C(c2c(O)[nH]c3ccc(Br)cc23)=Nc2ccc(Br)cc21 | 63 | > 100 | > 100 | > 100 | > 100 | 79.5 | > 100 | > 100 | > 100 | 43.1 | > 100 | 82.3 | > 100 |
| CC1OC(OC2C(O[C@H]3CC[C@@]4(C)C(=CC[C@H]5[C@@H]6C[C@@H]7O[C@]8(CC[C@@H](C)CO8)[C@@H](C)[C@@H]7[C@@]6(C)CC[C@@H]54)C3)OC(CO)C(O)C2O)C(O)C(O)C1O (stereo partly drawn) | 6.54 | 6.17 | 5.21 | 2.87 | 2.7 | 3.14 | 2.44 | 1.63 | 2.26 | 4.12 | 3.27 | 2.53 | 6.33 |
| O=C(O)[C@H](CCC[C@H]1C(=O)O[C@H](c2ccccc2)[C@H](c2ccccc2)N1C(=O)OCc1ccccc1)N[C@@H](c1ccccc1)[C@H](O)c1ccccc1 | 53.1 | 49.5 | > 100 | 38.8 | 44.1 | 33.1 | 81 | > 100 | 44 | > 100 | 42.1 | > 100 | > 100 |
| NCCN1C(=O)c2ccccc2C1c1ccc(Cl)cc1 (stereo not drawn) | > 100 | > 100 | > 100 | > 100 | > 100 | > 100 | > 100 | > 100 | > 100 | > 100 | > 100 | > 100 | > 100 |
| CC(Oc1ccccc1)C(=O)NNC(=O)OC(C)(C)C (stereo not drawn) | > 100 | > 100 | > 100 | > 100 | > 100 | > 100 | > 100 | > 100 | > 100 | > 100 | > 100 | > 100 | > 100 |
| CCOC(=O)c1c(SC(=O)c2ccc(OC)cc2)n(-c2ccccc2)c(=S)n(-c2ccccc2)c1=O | > 100 | > 100 | 47.8 | 70.2 | > 100 | 81 | > 100 | > 100 | > 100 | > 100 | > 100 | > 100 | > 100 |
| COC(=O)c1cc(OC)c(OC)c(OC)c1-c1cc2c(cc1C=O)OCO2 | > 10 | > 10 | > 10 | > 10 | > 10 | > 10 | > 10 | > 10 | > 10 | > 10 | > 10 | > 10 | > 10 |
